Values quoted from earlier work in patent publication US20120135069A1, “NANONIZED TESTOSTERON FORMULATIONS FOR IMPROVED BIOAVAILABILITY” (PHARMASOL GMBH, priority 2009, published 2012).

Experiments:
[1] = in vivo
[2] = taken orally

Row | Structure (SMILES) | liver toxicity [1] | fraction of the drug immediately metabolised by liver enzymes (first pass effect) [2]
1 | C[C@]12CCC(=O)C=C1CC[C@@H]1[C@@H]2CC[C@@]2(C)[C@H]1CC[C@]2(C)O [methyltestosterone] | very liver toxic | –
2 | C[C@]12CC[C@H]3[C@@H](CCC4=CC(=O)CC[C@@]43C)[C@@H]1CC[C@@H]2O [testosterone] | – | about 99%
